Reference: US8648096B2, “N-methylaminomethyl isoindole compounds and compositions comprising and methods of using the same” (Celgene Corporation, priority 2006, dated 2014)

| SMILES | melting point |
| --- | --- |
| CN(Cc1cccc2c1C(=O)N(C1CCC(=O)NC1=O)C2=O)C(=O)OC(C)(C)C (stereo not shown) [Example 5.1, [2-(2,6-dioxo-piperidin-3-yl)-1,3-dioxo-2,3-dihydro-1H-isoindol-4-ylmethyl]-methyl-carbamic acid T-butyl ester] | 138 to 140 °C |
| Cc1cccc(NC(=O)N(C)Cc2cccc3c2CN(C2CCC(=O)NC2=O)C3=O)c1 (stereo not shown) [Example 5.29, 1-[2-(2,6-dioxo-piperidin-3-yl)-1-oxo-2,3-dihydro-1H-isoindol-4-ylmethyl]-1-methyl-3-M-tolyl-urea] | 208 to 210 °C |
| CCCNC(=O)N(C)Cc1cccc2c1CN(C1CCC(=O)NC1=O)C2=O (stereo not shown) [Example 5.30, 1-[2-(2,6-dioxo-piperidin-3-yl)-1-oxo-2,3-dihydro-1H-isoindol-4-ylmethyl]-1-methyl-3-propyl-urea] | 220 to 222 °C |
| CN(Cc1cccc2c1CN(C1CCC(=O)NC1=O)C2=O)C(=O)Nc1cccc(Cl)c1 (stereo not shown) [Example 5.32, 3-(3-chloro-phenyl)-1-[2-(2,6-dioxo-piperidin-3-yl)-1-oxo-2,3-dihydro-1H-isoindol-4-ylmethyl]-1-methyl-urea] | 193 to 195 °C |
| CN(Cc1cccc2c1CN(C1CCC(=O)NC1=O)C2=O)C(=O)Nc1cccc(C(F)(F)F)c1 (stereo not shown) [Example 5.34, 1-[2-(2,6-dioxo-piperidin-3-yl)-1-oxo-2,3-dihydro-1H-isoindol-4-ylmethyl]-1-methyl-3-(3-trifluoromethyl-phenyl)-urea] | 198 to 200 °C |
| CN(Cc1cccc2c1C(=O)N(C1CCC(=O)NC1=O)C2=O)C(=O)Nc1cccc(Cl)c1 (stereo not shown) [Example 5.35, 3-(3-chloro-phenyl)-1-[2-(2,6-dioxo-piperidin-3-yl)-1,3-dioxo-2,3-dihydro-1H-isoindol-4-ylmethyl]-1-methyl-urea] | 193 to 195 °C |
| CN(Cc1cccc2c1C(=O)N(C1CCC(=O)NC1=O)C2=O)C(=O)NC(C)(C)C (stereo not shown) [Example 5.36, 3-tert-butyl-1-[2-(2,6-dioxo-piperidin-3-yl)-1,3-dioxo-2,3-dihydro-1H-isoindol-4-ylmethyl]-1-methyl-urea] | 188 to 190 °C |
| CN(Cc1cccc2c1CN(C1CCC(=O)NC1=O)C2=O)C(=O)Nc1cc(Cl)cc(Cl)c1 (stereo not shown) [Example 5.37, 3-(3,5-dichloro-phenyl)-1-[2-(2,6-dioxo-piperidin-3-yl)-1-oxo-2,3-dihydro-1H-isoindol-4-ylmethyl]-1-methyl-urea] | 285 to 287 °C |
| Cc1ccc(NC(=O)N(C)Cc2cccc3c2C(=O)N(C2CCC(=O)NC2=O)C3=O)cc1C (stereo not shown) [Example 5.40, 3-(3,4-dimethyl-phenyl)-1-[2-(2,6-dioxo-piperidin-3-yl)-1,3-dioxo-2,3-dihydro-1H-isoindol-4-ylmethyl]-1-methyl-urea] | 202 to 204 °C |
| CN(Cc1cccc2c1CN(C1CCC(=O)NC1=O)C2=O)C(=O)Nc1cccc2ccccc12 (stereo not shown) [Example 5.41, 1-[2-(2,6-dioxo-piperidin-3-yl)-1-oxo-2,3-dihydro-1H-isoindol-4-ylmethyl]-1-methyl-3-naphthalen-1-yl-urea] | 292 to 294 °C |
